# From ChEMBL document CHEMBL1201862, “PubChem BioAssay data set” (2004)
#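 Dose response: 5 concentrations. Exposure: 48 h. Format: 96-well plates. Endpoint: linear interpolation; highest concentration if not reached. The concentration for 50% growth inhibition is given as GI50.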 Active and inactive are the calls of the source. Rule as the data show it: active = GI50 up to about 1.1 µM and inactive = higher.
# Columns and labels:
# Assay in all cases: NCI anticancer screen, dose series, 48 h
# [1] = test system: DLD-1
# [2] = test system: DMS-114
# [3] = test system: DMS-273
# [4] = test system: SNB-78
# [5] = test system: LXFL 529
# [6] = test system: M19-MEL
# [7] = test system: XF498
# [8] = test system: HOP-18
# [9] = test system: RXF 631
SMILES,GI50 [1],GI50 [2],GI50 [3],GI50 [4],GI50 [5],GI50 [6],GI50 [7],GI50 [8],GI50 [9]
CCOC(=N)CC(=O)c1ccccc1,> 100 µM (inactive),> 100 µM (inactive),> 100 µM (inactive),> 100 µM (inactive),> 100 µM (inactive),> 100 µM (inactive),> 100 µM (inactive),> 100 µM (inactive),–
COC(=O)C(=O)OC1(C(C)=O)CC2(c3ccccc3)OC1(c1ccccc1)c1ccccc12 (configuration not stated),18.6 µM (inactive),15.1 µM (inactive),15.2 µM (inactive),27.8 µM (inactive),19.8 µM (inactive),16.9 µM (inactive),16.4 µM (inactive),52.8 µM (inactive),23.1 µM (inactive)
C=C(COC(C)=O)CC(/C=C(\C)CCC=C(C)C)OC(C)=O (configuration not stated),> 100 µM (inactive),> 100 µM (inactive),> 100 µM (inactive),> 100 µM (inactive),> 100 µM (inactive),> 100 µM (inactive),47.6 µM (inactive),–,–
C=C(CS(=O)(=O)c1ccccc1)[P+](c1ccccc1)(c1ccccc1)c1ccccc1,21.4 µM (inactive),21.6 µM (inactive),16.4 µM (inactive),38 µM (inactive),–,17.3 µM (inactive),15 µM (inactive),–,–
CCCCCCCCCCCCC(Br)C(=O)NCC(N)=O (configuration not stated),12.9 µM (inactive),3.61 µM (inactive),11.7 µM (inactive),12.4 µM (inactive),9.91 µM (inactive),15 µM (inactive),1.37 µM (inactive),14.3 µM (inactive),3.63 µM (inactive)
COc1ccc(/N=N/c2c(-c3ccccc3)nn(C(=O)CC(=O)Nc3ccccc3Cl)c2-c2ccccc2)cc1,> 100 µM (inactive),25.9 µM (inactive),> 100 µM (inactive),> 100 µM (inactive),> 100 µM (inactive),> 100 µM (inactive),–,> 100 µM (inactive),> 100 µM (inactive)
"Cc1cc(C(=C2C=CC(=N)C=C2)c2ccc(N)cc2)ccc1N [FUCHSIN, BASIC]",3.45 µM (inactive),1.31 µM (inactive),–,2.76 µM (inactive),1.03 µM (active),4.21 µM (inactive),2.77 µM (inactive),–,–
COc1cc([C@@H]2c3cc4c(cc3[C@@H](NC(=O)c3ccc(N)cc3)C3COC(=O)[C@@H]32)OCO4)cc(OC)c1O (some centres not stated),3.47 µM (inactive),2 µM (inactive),0.37 µM (active),–,13.9 µM (inactive),12.5 µM (inactive),–,> 100 µM (inactive),–
COc1ccc(NC(=O)c2cc(OC)cc(OC)c2)cc1,17.1 µM (inactive),7.29 µM (inactive),9.02 µM (inactive),26 µM (inactive),40.5 µM (inactive),–,> 70.3 µM (inactive),> 46.7 µM (inactive),–
Clc1ccccc1C1SCc2nc3ccccc3n21 (configuration not stated),33.2 µM (inactive),–,–,17.1 µM (inactive),26.4 µM (inactive),33 µM (inactive),30.3 µM (inactive),< 0.01 µM (active),–
COc1ccc2nc(NC(=O)C(=O)CC(=O)c3ccc(Cl)cc3)sc2c1,> 100 µM (inactive),> 100 µM (inactive),> 100 µM (inactive),> 100 µM (inactive),> 100 µM (inactive),> 100 µM (inactive),46.9 µM (inactive),78.2 µM (inactive),–
OC/C=C(\I)CCCOCOCc1ccccc1,> 100 µM (inactive),22.8 µM (inactive),21.8 µM (inactive),25.6 µM (inactive),48.9 µM (inactive),32.1 µM (inactive),14 µM (inactive),–,–
O=c1oc2c3ccc4ccccc4c3n(CCN3CCOCC3)c2c2ccccc12,> 100 µM (inactive),> 100 µM (inactive),–,–,> 100 µM (inactive),3.76 µM (inactive),–,> 100 µM (inactive),–
COC1OC(COCc2ccc(Cl)cc2)C(OCc2ccc(Cl)cc2)C1O (configuration not stated),16.2 µM (inactive),13.7 µM (inactive),17.3 µM (inactive),–,18.4 µM (inactive),19.2 µM (inactive),3.07 µM (inactive),12.8 µM (inactive),16.2 µM (inactive)
O=C(NC(=O)c1ccccc1[N+](=O)[O-])Nc1ccc(Oc2ncc(Cl)cn2)c(C(F)(F)F)c1,< 0.0132 µM (active),< 0.01 µM (active),< 0.01 µM (active),< 0.01 µM (active),< 0.01 µM (active),< 0.0171 µM (active),0.0103 µM (active),53.1 µM (inactive),–
CCC(C)C(=O)O[C@H]1C(=O)O[C@@H]2C[C@H]3C(C)=CC(=O)[C@@H](O)[C@]3(C)[C@H]3[C@@H](O)[C@H](O)[C@@]4(C)OC[C@]32[C@@H]14 (some centres not stated),0.0293 µM (active),0.0152 µM (active),0.019 µM (active),0.0323 µM (active),0.0103 µM (active),0.0269 µM (active),0.0208 µM (active),0.158 µM (active),–
Cc1nc2ccccc2c(=O)n1NC(=S)Nc1ccccc1,> 100 µM (inactive),71.1 µM (inactive),> 100 µM (inactive),–,> 100 µM (inactive),> 100 µM (inactive),–,> 100 µM (inactive),–
O=C1Nc2nc3ccccc3n2N=C2CCCC12 (configuration not stated),> 100 µM (inactive),> 100 µM (inactive),> 100 µM (inactive),> 100 µM (inactive),> 100 µM (inactive),> 100 µM (inactive),> 100 µM (inactive),–,> 100 µM (inactive)
CCCCCCC(C)OC(=O)/C=C(\CC(=O)OC(C)CCCCCC)C(=O)OC(C)CCCCCC (configuration not stated),> 100 µM (inactive),> 100 µM (inactive),> 100 µM (inactive),> 100 µM (inactive),> 100 µM (inactive),> 100 µM (inactive),–,–,–
CC(C)=CC(=O)C1c2cccc(O)c2C(=O)c2c(O)cc(C)cc21 (configuration not stated),2.87 µM (inactive),1.79 µM (inactive),3.48 µM (inactive),2.86 µM (inactive),2.04 µM (inactive),1.81 µM (inactive),1.54 µM (inactive),2.15 µM (inactive),–
N#Cc1ccc(Oc2ccccc2)cc1C#N,65.2 µM (inactive),23.7 µM (inactive),17.4 µM (inactive),54.6 µM (inactive),42.6 µM (inactive),54.2 µM (inactive),> 100 µM (inactive),> 100 µM (inactive),–
Cc1nc2sccn2c1C(=O)NNC(N)=S,> 100 µM (inactive),> 100 µM (inactive),> 100 µM (inactive),–,> 100 µM (inactive),–,–,> 100 µM (inactive),–
O=C(CC(=O)C(F)(F)F)c1csc2ccccc12,–,31 µM (inactive),25 µM (inactive),37.4 µM (inactive),21.7 µM (inactive),32.8 µM (inactive),–,–,–
